# Source: PubChem BioAssay (NCI)
#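 Assay format: 96-well plates, 48-hour exposure. TGI: concentration producing complete growth inhibition.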
# What was measured:
# Experiment in all cases: DTP human tumour cell line panel, 48 h
# HCT-15 colon = test system: HCT-15 colon
# HCC-2998 colon = test system: HCC-2998 colon
# HCT-116 colon = test system: HCT-116 colon
# OVCAR-4 ovarian = test system: OVCAR-4 ovarian
# A498 renal = test system: A498 renal
# OVCAR-8 ovarian = test system: OVCAR-8 ovarian
# SNB-78 CNS = test system: SNB-78 CNS
# UO-31 renal = test system: UO-31 renal
# RXF 393 renal = test system: RXF 393 renal
# SNB-75 CNS = test system: SNB-75 CNS
# M14 melanoma = test system: M14 melanoma
# CAKI-1 renal = test system: CAKI-1 renal
# SR leukemia = test system: SR leukemia
# SK-OV-3 ovarian = test system: SK-OV-3 ovarian
# DLD-1 colon = test system: DLD-1 colon
# XF 498 CNS = test system: XF 498 CNS
# IGROV1 ovarian = test system: IGROV1 ovarian
# NCI-H226 lung = test system: NCI-H226 lung
# SN12C renal = test system: SN12C renal
# KM20L2 colon = test system: KM20L2 colon
# LXFL 529 NSCLC = test system: LXFL 529 NSCLC
# SF-268 CNS = test system: SF-268 CNS
# COLO 205 colon = test system: COLO 205 colon
# RXF-631 renal = test system: RXF-631 renal
# M19-MEL melanoma = test system: M19-MEL melanoma
# MALME-3M melanoma = test system: MALME-3M melanoma
# HL-60(TB) leukemia = test system: HL-60(TB) leukemia
# NCI-H460 lung = test system: NCI-H460 lung
# K-562 leukemia = test system: K-562 leukemia
# HOP-92 NSCLC = test system: HOP-92 NSCLC
# SF-539 CNS = test system: SF-539 CNS
# CCRF-CEM leukemia = test system: CCRF-CEM leukemia
# A549 NSCLC = test system: A549 NSCLC
# TK-10 renal = test system: TK-10 renal
# NCI-H23 lung = test system: NCI-H23 lung
# LOX IMVI melanoma = test system: LOX IMVI melanoma
# SK-MEL-5 melanoma = test system: SK-MEL-5 melanoma
# 786-0 renal = test system: 786-0 renal
# RPMI-8226 leukemia = test system: RPMI-8226 leukemia
# KM12 colon = test system: KM12 colon
# U251 CNS = test system: U251 CNS
# UACC-257 melanoma = test system: UACC-257 melanoma
# SW-620 colon = test system: SW-620 colon
# DMS 114 small cell lung = test system: DMS 114 small cell lung
# UACC-62 melanoma = test system: UACC-62 melanoma
# EKVX NSCLC = test system: EKVX NSCLC
# SNB-19 CNS = test system: SNB-19 CNS
# OVCAR-3 ovarian = test system: OVCAR-3 ovarian
# MOLT-4 leukemia = test system: MOLT-4 leukemia
# NCI-H522 lung = test system: NCI-H522 lung
# HOP-62 NSCLC = test system: HOP-62 NSCLC
# HT29 colon = test system: HT29 colon
# SF-295 CNS = test system: SF-295 CNS
# DMS 273 small cell lung = test system: DMS 273 small cell lung
# OVCAR-5 ovarian = test system: OVCAR-5 ovarian
# DU-145 prostate = test system: DU-145 prostate
# HOP-18 NSCLC = test system: HOP-18 NSCLC
# ACHN renal = test system: ACHN renal
# SK-MEL-28 melanoma = test system: SK-MEL-28 melanoma
# SK-MEL-2 melanoma = test system: SK-MEL-2 melanoma
smiles,measurement,setting,value
Cc1ccc(S(=O)(=O)C(CC(NC=O)S(=O)(=O)c2ccc(C)cc2)NC=O)cc1 (stereo unspecified),TGI,HCT-15 colon,> 100 µM
same,TGI,HCC-2998 colon,> 100 µM
same,TGI,HCT-116 colon,> 100 µM
same,TGI,OVCAR-4 ovarian,> 100 µM
same,TGI,A498 renal,> 100 µM
same,TGI,OVCAR-8 ovarian,> 100 µM
same,TGI,SNB-78 CNS,> 100 µM
same,TGI,UO-31 renal,> 100 µM
same,TGI,RXF 393 renal,> 100 µM
same,TGI,SNB-75 CNS,> 100 µM
same,TGI,M14 melanoma,> 100 µM
same,TGI,CAKI-1 renal,> 100 µM
same,TGI,SR leukemia,> 100 µM
same,TGI,SK-OV-3 ovarian,> 100 µM
same,TGI,DLD-1 colon,> 100 µM
same,TGI,XF 498 CNS,> 100 µM
same,TGI,IGROV1 ovarian,> 100 µM
same,TGI,NCI-H226 lung,> 100 µM
same,TGI,SN12C renal,> 100 µM
same,TGI,KM20L2 colon,> 100 µM
same,TGI,LXFL 529 NSCLC,> 100 µM
same,TGI,SF-268 CNS,> 100 µM
same,TGI,COLO 205 colon,> 100 µM
same,TGI,RXF-631 renal,> 100 µM
same,TGI,M19-MEL melanoma,> 100 µM
same,TGI,MALME-3M melanoma,> 100 µM
same,TGI,HL-60(TB) leukemia,> 100 µM
same,TGI,NCI-H460 lung,> 100 µM
same,TGI,K-562 leukemia,> 100 µM
same,TGI,HOP-92 NSCLC,> 100 µM
same,TGI,SF-539 CNS,> 100 µM
same,TGI,CCRF-CEM leukemia,> 100 µM
same,TGI,A549 NSCLC,> 100 µM
same,TGI,TK-10 renal,> 100 µM
same,TGI,NCI-H23 lung,> 100 µM
same,TGI,LOX IMVI melanoma,> 100 µM
same,TGI,SK-MEL-5 melanoma,> 100 µM
same,TGI,786-0 renal,> 100 µM
same,TGI,RPMI-8226 leukemia,> 100 µM
same,TGI,KM12 colon,> 100 µM
same,TGI,U251 CNS,> 100 µM
same,TGI,UACC-257 melanoma,> 100 µM
same,TGI,SW-620 colon,> 100 µM
same,TGI,DMS 114 small cell lung,> 100 µM
same,TGI,UACC-62 melanoma,> 100 µM
same,TGI,EKVX NSCLC,> 100 µM
same,TGI,SNB-19 CNS,> 100 µM
same,TGI,OVCAR-3 ovarian,> 100 µM
same,TGI,MOLT-4 leukemia,> 100 µM
same,TGI,NCI-H522 lung,> 100 µM
same,TGI,HOP-62 NSCLC,> 100 µM
same,TGI,HT29 colon,> 100 µM
same,TGI,SF-295 CNS,> 100 µM
same,TGI,DMS 273 small cell lung,> 100 µM
C=C=C(Sc1ccccc1)C(C)(C)O,TGI,HCT-15 colon,> 100 µM
same,TGI,HCC-2998 colon,> 100 µM
same,TGI,HCT-116 colon,> 100 µM
same,TGI,OVCAR-4 ovarian,> 100 µM
same,TGI,A498 renal,> 100 µM
same,TGI,OVCAR-5 ovarian,> 100 µM
same,TGI,OVCAR-8 ovarian,> 100 µM
same,TGI,UO-31 renal,> 100 µM
same,TGI,RXF 393 renal,> 100 µM
same,TGI,SNB-75 CNS,> 100 µM
same,TGI,M14 melanoma,> 100 µM
same,TGI,DU-145 prostate,> 100 µM
same,TGI,SR leukemia,> 100 µM
same,TGI,SK-OV-3 ovarian,> 100 µM
same,TGI,HOP-18 NSCLC,> 100 µM
same,TGI,DLD-1 colon,> 100 µM
same,TGI,XF 498 CNS,> 100 µM
same,TGI,IGROV1 ovarian,> 100 µM
same,TGI,NCI-H226 lung,> 100 µM
same,TGI,SN12C renal,> 100 µM
same,TGI,KM20L2 colon,> 100 µM
same,TGI,LXFL 529 NSCLC,> 100 µM
same,TGI,SF-268 CNS,> 100 µM
same,TGI,COLO 205 colon,> 100 µM
same,TGI,RXF-631 renal,> 100 µM
same,TGI,M19-MEL melanoma,> 100 µM
same,TGI,MALME-3M melanoma,> 100 µM
same,TGI,HL-60(TB) leukemia,> 100 µM
same,TGI,NCI-H460 lung,> 100 µM
same,TGI,K-562 leukemia,> 100 µM
same,TGI,HOP-92 NSCLC,> 100 µM
same,TGI,SF-539 CNS,> 100 µM
same,TGI,CCRF-CEM leukemia,> 100 µM
same,TGI,TK-10 renal,> 100 µM
same,TGI,NCI-H23 lung,> 100 µM
same,TGI,LOX IMVI melanoma,> 100 µM
same,TGI,786-0 renal,> 100 µM
same,TGI,RPMI-8226 leukemia,> 100 µM
same,TGI,ACHN renal,> 100 µM
same,TGI,KM12 colon,> 100 µM
same,TGI,U251 CNS,> 100 µM
same,TGI,UACC-257 melanoma,> 100 µM
same,TGI,SK-MEL-28 melanoma,> 100 µM
same,TGI,SW-620 colon,> 100 µM
same,TGI,SK-MEL-2 melanoma,> 100 µM
same,TGI,UACC-62 melanoma,> 100 µM
same,TGI,SNB-19 CNS,> 100 µM
same,TGI,OVCAR-3 ovarian,> 100 µM
same,TGI,MOLT-4 leukemia,> 100 µM
same,TGI,NCI-H522 lung,> 100 µM
same,TGI,HT29 colon,> 100 µM
same,TGI,SF-295 CNS,> 100 µM
O=C(Cc1ccc(F)cc1)NC1=C(Cl)C(=O)c2ccccc2C1=O,TGI,HCT-15 colon,7.43 µM
same,TGI,HCC-2998 colon,16 µM
same,TGI,HCT-116 colon,11.9 µM
same,TGI,OVCAR-4 ovarian,9.28 µM
same,TGI,OVCAR-5 ovarian,13.1 µM
same,TGI,OVCAR-8 ovarian,4.05 µM
same,TGI,SNB-78 CNS,34.7 µM
same,TGI,UO-31 renal,7.88 µM
same,TGI,RXF 393 renal,4.11 µM
same,TGI,SNB-75 CNS,18.3 µM
same,TGI,M14 melanoma,12.4 µM
same,TGI,CAKI-1 renal,19.8 µM
same,TGI,SR leukemia,3.34 µM
same,TGI,SK-OV-3 ovarian,58.3 µM
same,TGI,DLD-1 colon,4.24 µM
same,TGI,XF 498 CNS,4.02 µM
same,TGI,IGROV1 ovarian,6.63 µM
same,TGI,NCI-H226 lung,12.7 µM
same,TGI,SN12C renal,13.8 µM
same,TGI,KM20L2 colon,34.8 µM
same,TGI,LXFL 529 NSCLC,10.5 µM
same,TGI,SF-268 CNS,15.1 µM
same,TGI,COLO 205 colon,12.7 µM
same,TGI,RXF-631 renal,> 50 µM
same,TGI,M19-MEL melanoma,14.7 µM
same,TGI,MALME-3M melanoma,7.89 µM
same,TGI,HL-60(TB) leukemia,0.39 µM
same,TGI,NCI-H460 lung,13.8 µM
same,TGI,HOP-92 NSCLC,3.68 µM
same,TGI,SF-539 CNS,5.02 µM
same,TGI,CCRF-CEM leukemia,> 100 µM
same,TGI,A549 NSCLC,16.4 µM
same,TGI,TK-10 renal,14.5 µM
same,TGI,NCI-H23 lung,5.94 µM
same,TGI,LOX IMVI melanoma,9.05 µM
same,TGI,SK-MEL-5 melanoma,11.3 µM
same,TGI,786-0 renal,19.5 µM
same,TGI,RPMI-8226 leukemia,4.14 µM
same,TGI,ACHN renal,3.4 µM
same,TGI,KM12 colon,14.4 µM
same,TGI,U251 CNS,11.5 µM
same,TGI,UACC-257 melanoma,6.56 µM
same,TGI,SK-MEL-28 melanoma,11.6 µM
same,TGI,SW-620 colon,5.76 µM
same,TGI,SK-MEL-2 melanoma,6.33 µM
same,TGI,DMS 114 small cell lung,1.8 µM
same,TGI,UACC-62 melanoma,9.87 µM
same,TGI,EKVX NSCLC,16 µM
same,TGI,SNB-19 CNS,> 100 µM
same,TGI,OVCAR-3 ovarian,9.33 µM
same,TGI,NCI-H522 lung,1.25 µM
same,TGI,HOP-62 NSCLC,44.6 µM
same,TGI,HT29 colon,35.4 µM
same,TGI,SF-295 CNS,12 µM
same,TGI,DMS 273 small cell lung,13.6 µM
